Experimental data as given in patent EP2511272B1, “Synthetic analogues of abscisic acid with anti-inflammatory and insulin release stimulation effects on human cells” (Universita' degli Studi di Genova, priority 2011, dated 2012).
pIC50, pKd, pKi: −log10 of the molar value.

Legend:
[1] = biological target: T1, ABA receptor (Homo sapiens, UniProt Q9NS86); conditions: value used in Cheng-Prusoff equation (Yamazaki e al., 2003); cited from earlier work
T1 construct: Human granulocytes (7 x 10^6 per point), after ON incubation in complete DMEM/F12, were incubated in triplicate; endogenous in cells; host or cells: human granulocytes (intact cells)
T1 sequence (Q9NS86 1-450): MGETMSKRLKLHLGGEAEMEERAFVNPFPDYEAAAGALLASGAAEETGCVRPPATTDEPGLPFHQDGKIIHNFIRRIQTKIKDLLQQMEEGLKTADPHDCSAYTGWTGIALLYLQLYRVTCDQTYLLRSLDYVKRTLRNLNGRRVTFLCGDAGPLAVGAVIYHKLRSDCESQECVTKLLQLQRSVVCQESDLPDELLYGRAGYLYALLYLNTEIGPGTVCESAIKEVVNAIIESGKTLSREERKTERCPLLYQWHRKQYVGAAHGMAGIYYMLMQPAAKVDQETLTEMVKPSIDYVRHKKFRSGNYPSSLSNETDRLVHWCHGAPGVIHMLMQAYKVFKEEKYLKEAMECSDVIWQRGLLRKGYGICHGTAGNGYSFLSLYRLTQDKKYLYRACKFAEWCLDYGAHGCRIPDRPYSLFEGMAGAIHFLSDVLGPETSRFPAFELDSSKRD

[2] = biological target: T1, ABA receptor; test: Competition binding with [^3H]-ABA on human granulocytes
Procedure: Human granulocytes (7 x 10^6 per point), after ON incubation in complete DMEM/F12, were incubated in triplicate at 25 °C for 60 min in 100 µl of HBSS spiked with glucose 10 mM in the presence either of an excess of unlabeled ABA (1 mM) (in order to determine the non-specific binding rate) or of increasing concentrations of compound prepared according to example 1 (from 0,01 nM up to 100 µM). To each compound, 10 nM of [^3H]-ABA (GE Healthcare) with specific activity of 98,000 cpm/pmole were added. At the end of incubation, the cells were centrifuged for 30 sec at […], the supernatant was removed and discarded, and the pellet was washed once wih an excess of HBSS in ice, and centrifuged for 30 sec at 17,000xg. The pellet was resuspended in 200 µl of de-ionized water and radioactivity of cells was determined after addition of scintillation cocktail in a β counter.
Specific binding was computed as the difference between the total binding of [^3H]-ABA in the cells and the binding of [^3H]-ABA in the presence of an excess of unlabeled ABA (1 mM) (non-specific binding).
The experiment was carried out five times in triplicate.

[3] = tested on: Raw 264.7 (murine monocitic leukemia); test: Cytotoxicity, CellTiter 96 AQueous One Solution assay; type: cell-based; conditions: 24 hrs
[4] = tested on: human granulocytes; test: as above; type: cell-based; conditions: 24 hrs
[5] = tested on: granulocytes; test: Inhibition of ABA-induced chemotaxis (granulocyte migration, ChemoTx); type: cell-based, human
[6] = Stability without extraction in H2O and HBSS (HPLC-MS); type: physicochemical; conditions: 10 µM, 37 °C
Procedure: Additionally, stability tests were carried out in water, in HBSS and in HBSS in the presence of human granulocytes at time 0, and after 1 and 2 hrs at 37 °C, and carrying out HPLC-MSS analysis without extracting the analyte of interest.
In order to test the compound prepared according to example 1 for stability in HBSS in the presence, or absence, of granulocytes, 1 x 10^8 cells were used in 2 ml of HBSS (with calcium and magnesium added) containing 10 µM of compound prepared according to example 1 at 37°C. Samples of 500 µl each were drawn at time 0, and after 1 and 2 hrs and the cells were separated by centrifugation at 200xg for 5 minutes; the supernatant was then recovered and directly analysed in HPLC-MS.
The HPLC-MS system used consists of an Agilent 1100 capillary chromatograph equipped with a diode array detector (DAD) and coupled with an Agilent 1100 series LC/MSD Trap mass spectometer with orthogonal electrospray source and a ionic-trap analyser.
The detection wavelength was 254 nm and the MS spectrum was recorded in negative ions mode in an m/z range of 50-300.
The amount of compound of example 1 in the extracts and supernatants was computed as the area of the peak under the extracted ion current m/z 279.3, normalized for the ionization efficiency of internal standard (hexadeuterated ABA) used for HPLC-MS analysis. Furthermore, the concentration was computed using the recovery rates obtained from the evaluation of counts per minute (cpm) of extracted [^3H]ABA.

**Q.** With `CC1=CC(=O)CC(C)(C)C1(O)/C=C/C(C)=C\C(=O)O` (racemic) [ABA, (2Z,4E)-5-(1-hydroxy-2,6,6-trimethyl-4-oxo-2-cyclohexen-1-yl)-3-methyl-2,4-pentadienoic acid, reference compound] as the compound, how does the pKd [1] read?
**A.** Its pKd is 7.96.

**Q.** With `CC(=C/C(=O)O)/C=C/C1(O)C(C)(C)CC(=O)C2OC21C` (stereo not drawn) [Example 1, 2'α,3'α-dihydro-2'α,3'α-epoxyabscisic acid] as the compound, how does the pKi ([2]; Cheng-Prusoff, [ABA] =10 nM, KD ABA = 11 nM, 95% confidence intervals 0.25 nM to 0.83 nM, read-out: inhibition constant Ki) read?
**A.** The pKi was 9.34.

**Q.** And the pIC50 ([2]; displaces 50 % of radioligand specific binding, 95 % confidence intervals 0.48 nM to 1.58 nM)?
**A.** Its pIC50 is 9.06.

**Q.** What about the number of cells ([3]; 1 nM) of the same compound?
**A.** Its number of cells is 306321.

**Q.** What about the vitality % ([3]; 1 nM) of the same compound?
**A.** Its vitality % is 100%.

**Q.** And the number of cells ([3]; 10 nM)?
**A.** Its number of cells is 30555.

**Q.** And the vitality % ([3]; 10 nM)?
**A.** The vitality % was 100%.

**Q.** What about the number of cells ([3]; 1 µM) of the same compound?
**A.** Its number of cells is 274987.

**Q.** What about the vitality % ([3]; 1 µM) of the same compound?
**A.** The vitality % was 90%.

**Q.** And the number of cells ([3]; 100 µM)?
**A.** Its number of cells is 290264.

**Q.** What about the vitality % ([3]; 100 µM) of the same compound?
**A.** The vitality % was 95%.

**Q.** And the number of cells ([4]; 1 nM)?
**A.** Its number of cells is 151138.

**Q.** And the vitality % ([4]; 1 nM)?
**A.** Its vitality % is 89%.

**Q.** What about the number of cells ([4]; 10 nM) of the same compound?
**A.** The number of cells was 191138.

**Q.** And the vitality % ([4]; 10 nM)?
**A.** Its vitality % is 100%.

**Q.** What about the number of cells ([4]; 1 µM) of the same compound?
**A.** Its number of cells is 132555.

**Q.** And the vitality % ([4]; 1 µM)?
**A.** Its vitality % is 83%.

**Q.** What about the number of cells ([4]; 100 µM) of the same compound?
**A.** Its number of cells is 175388.

**Q.** And the vitality % ([4]; 100 µM)?
**A.** The vitality % was 96%.

**Q.** What about the “CI±SD (chemotactic index)” value ([5]; ABA 1 µM + compound 10 nM) of the same compound?
**A.** The value was 1.26±0.07.

**Q.** And the inhibition at 0.01 µM ([5]; Homo sapiens, migration towards ABA 1 µM, compound 10 nM)?
**A.** Its inhibition at 0.01 µM is 57%.

**Q.** And the “Stability (without extraction)” value ([6]; H2O, 0 hr)?
**A.** Its value is 100%.

**Q.** What about the “Stability (without extraction)” value ([6]; H2O, 1 h) of the same compound?
**A.** The value was 100%.

**Q.** And the “Stability (without extraction)” value ([6]; H2O, 2 hrs)?
**A.** The value was 98%.

**Q.** And the “Stability (without extraction)” value ([6]; HBSS, 0 hr)?
**A.** Its value is 100%.

**Q.** What about the “Stability (without extraction)” value ([6]; HBSS, 1 h) of the same compound?
**A.** The value was 100%.

**Q.** What about the “Stability (without extraction)” value ([6]; HBSS, 2 hrs) of the same compound?
**A.** The value was 89%.
